# PMC9695821, “Synthesis and Evaluation of NF-κB Inhibitory Activity of Mollugin Derivatives” (Molecules, 2022)
# Marks after values point to notes of the source that are not given here.
# Assays:
# [1] = MTT cytotoxicity / cell viability assay; assay type: cell-based; conditions: human; MTT assay, HeLa cells, 24 h treatment, normoxic conditions; mean, n = 3
# Protocol: HeLa cells were inoculated and cultured in 96-well plates. After the cells adhered to the wall, the prepared target compounds with different concentrations were added to all plates for 24 h and then cultured in 5 mg/mL MTT solution for 4 h. The culture solution in the holes was sucked out, and DMSO reagent was added. After the crystallization was fully dissolved, the absorbance at 570 nm was measured by Multiskan GO.
# [2] = system: xylene-induced ear edema; assay: Xylene-induced ear edema test, initial screening (i.p.); assay type: in vivo; conditions: mice; for inhibition in vivo at 100 mg/kg: Mus musculus, ip, 0.5 h, n = 6, read-out: Inhibition Rate; for Edema Mean ± SD: 100 mg/kg, n = 6
# Protocol: In vivo inhibition test of xylene induced ear edema in mice was performed to evaluate its anti-inflammatory activity.
# In the initial screening, mice (male) were randomly divided into experimental group, positive control drug ibuprofen and Mesalazine group, and blank group. All target compounds were dissolved in dimethyl sulfoxide, and corresponding drugs were intraperitoneally injected into experimental group, positive control group and blank group, respectively. Mice were treated with 100 mg/kg, 0.1 mL/20 g body weight, and control mice received only DMSO (0.1 mL/20 g body weight). After 30 min, 20 μL of xy-lene was evenly applied on both sides of the right ear of the mice. After 30 min of xy-lene was applied, the mice were sacrificed by cutting off their necks. Then the left and right ears of the mice were drilled with a hole punch with a diameter of 7 mm, respec-tively, to obtain two round ear pieces. The degree of swelling (right ear mass–left ear mass) was calculated for each sample, and the swelling inhibition rate of each drug was calculated using the following formula. The inhibition rate of swelling degree (%) = (mean ear swelling degree of mice in blank group […] mean ear swelling degree of mice in target compound group)/mean ear swelling degree of mice in blank group × 100%. The data were processed by GraphPadPrism 5 and expressed as mean data ± SEM. One-way ANOVA method was used for statistical analysis of relevant data. A value of p < 0.05 in the chart indicates significant and statistically significant data dif-ference.
# [3] = system: NF-κB transcriptional activity; assay: NF-κB luciferase reporter assay in HeLa cells; assay type: cell-based; conditions: Homo sapiens, NF-κB luciferase reporter, 24 h treatment, hypoxic conditions, mean, n = 3
# Protocol: A NF-κB-Luc plasmid for NF-κB luciferase reporter assay was obtained from Strategene (La Jolla, CA, USA). Transfections were performed as previously described. NF-κB-dependent luciferase activity was measured using the Dual-luciferase reporter assay system. Briefly, HeLa cells (1 × 10^5 cells/well) were seeded in a 96-well plate for 24 h. The cells were then transfected with plasmids for each well and then incubated for a transfection period of 24 h. […] Luciferase activity was determined in MicroLumat plus luminometer (EG&G Berthold, Bad Wildbad, Germany) by injecting 100 µL of assay buffer containing luciferin and measuring light emission for 10 s. Co-transfection with pRL-CMV (Promega, Madison, WI, USA), which expresses Renilla luciferase, was performed to enable normalization of data for transfection efficiency.
# [4] = system: xylene-induced ear edema; assay: Xylene-induced ear edema test, deep screening (oral); assay type: in vivo; conditions: mice
# Protocol: In the deep screening, mice were divided into target compound group, positive control group (ibuprofen), and blank group (8 male mice in each group). Target com-pound and ibuprofen were dissolved in sodium carboxymethyl cellulose aqueous solu-tion (sodium carboxymethyl cellulose to water, mass ratio 1:1000); the blank group was sodium carboxymethyl cellulose aqueous solution (sodium carboxymethyl cellu-lose to water, mass ratio 1:1000). The anti-inflammatory activities of each compound in the target compound group, positive control group, and blank group were measured at 1, 2, 3, 4, 6, 9, 12 and 24 h after taking the drug. The experimental operation and calculation method are the same as the initial screening part.
Structure (SMILES),IC50 at 24 h [1],melting point,inhibition in vivo at 100 mg/kg [2],Edema Mean ± SD [2],IC50 [3],further results
"COC(=O)c1c2c(c3ccccc3c1OCCBr)OC(C)(C)C=C2 [Compound 8a, Methyl 6-(2-bromoethoxy)-2,2-dimethyl-2H-benzo [h] chromene-5-carboxylate]",> 100 µM,110 to 112 °C,57.3%,2.8167 ± 0.9370 mg,> 100 µM,–
"COC(=O)c1c2c(c3ccccc3c1OCC(=O)NC1CCN(Cc3ccccc3)CC1)OC(C)(C)C=C2 [Compound 6a, Methyl 6-(2-((1-benzylpiperidin-4-yl)amino)-2-oxoethoxy)-2,2-dimethyl-2H-benzo [h] chromene-5-carboxylate]",> 100 µM,115 to 117 °C,56.6%,2.8667 ± 1.2645 mg,49.3 µM,–
"COC(=O)c1c2c(c3ccccc3c1OCC(=O)Nc1ccc(C)nc1)OC(C)(C)C=C2 [Compound 6i, Methyl 2,2-dimethyl-6-(2-((6-methylpyridin-3-yl)amino)-2-oxoethoxy)-2H-benzo [h] chromene-5-carboxylate]",> 100 µM,119 to 121 °C,42.9%,3.7667 ± 1.1571 mg,> 100 µM,–
"Nc1ccc(O)c(C(=O)O)c1 [mesalazine, reference compound]",–,–,51.3%,3.2167 ± 1.1067 mg,–,–
"COC(=O)c1c2c(c3ccccc3c1OCC(=O)Nc1cccc(C)c1)OC(C)(C)C=C2 [Compound 4h, Methyl 2,2-dimethyl-6-(2-oxo-2-(m-tolylamino)ethoxy)-2H-benzo [h] chromene-5-carboxylate]",> 100 µM,122 to 124 °C,62.4%,2.4833 ± 1.5464 mg,> 100 µM,–
"COC(=O)c1c2c(c3ccccc3c1OCC(=O)Nc1cnccn1)OC(C)(C)C=C2 [Compound 6h, Methyl 2,2-dimethyl-6-(2-oxo-2-(pyrazin-2-ylamino)ethoxy)-2H-benzo [h] chromene-5-carboxylate]",> 100 µM,121 to 123 °C,72.7%,1.8000 ± 0.6880 mg,4.93 µM,–
"COC(=O)c1c2c(c3ccccc3c1OCC(=O)Nc1ccncc1)OC(C)(C)C=C2 [Compound 6e, Methyl 2,2-dimethyl-6-(2-oxo-2-(pyridin-4-ylamino)ethoxy)-2H-benzo [h] chromene-5-carboxylate]",> 100 µM,126 to 128 °C,65.9%,2.2500 ± 0.3403 mg,> 100 µM,–
"COC(=O)c1c2c(c3ccccc3c1OCC(=O)Nc1ccccc1)OC(C)(C)C=C2 [Compound 4a, Methyl 2,2-dimethyl-6-(2-oxo-2-(phenylamino)ethoxy)-2H-benzo [h] chromene-5-carboxyate]",> 100 µM,118 to 120 °C,38.6%,4.0500 ± 0.6188 mg,> 100 µM,–
"COC(=O)c1c2c(c3ccccc3c1OCC(=O)Nc1cccc3cccnc13)OC(C)(C)C=C2 [Compound 6j, Methyl 2,2-dimethyl-6-(2-oxo-2-(quinolin-8-ylamino)ethoxy)-2H-benzo [h] chromene-5-carboxylate]",> 100 µM,113 to 115 °C,75.2%,1.6333 ± 0.4384 mg,18.6 µM,–
"COC(=O)c1c2c(c3ccccc3c1OCC(=O)Nc1ccc(Cl)cc1)OC(C)(C)C=C2 [Compound 4b, Methyl 6-(2-((4-chlorophenyl)amino)-2-oxoethoxy)-2,2-dimethyl-2H-benzo [h] chromene-5-carboxylate]",> 100 µM,122 to 124 °C,55.8%,2.9167 ± 0.8029 mg,> 100 µM,–
"COC(=O)c1c2c(c3ccccc3c1OCC(=O)Nc1ccc3ccccc3n1)OC(C)(C)C=C2 [Compound 6k, Methyl 2,2-dimethyl-6-(2-oxo-2-(quinolin-2-ylamino)ethoxy)-2H-benzo [h] chromene-5-carboxylate]",> 100 µM,116 to 118 °C,66.9%,2.1833 ± 0.6414 mg,> 100 µM,–
"COC(=O)c1c2c(c3ccccc3c1OCC(=O)NCc1ccc(Cl)cc1)OC(C)(C)C=C2 [Compound 6c, Methyl 6-(2-((4-chlorobenzyl)amino)-2-oxoethoxy)-2,2-dimethyl-2H-benzo [h] chromene-5-carboxylate]",> 100 µM,130 to 132 °C,73.2%,1.7667 ± 0.3037 mg,23.1 µM,–
"COC(=O)c1c2c(c3ccccc3c1OCC(=O)NC(c1ccccc1)c1ccccc1)OC(C)(C)C=C2 [Compound 6g, Methyl 6-(2-(benzhydrylamino)-2-oxoethoxy)-2,2-Dimethyl-2H-benzo [h] chromene-5-carboxylate]",> 100 µM,127 to 129 °C,58.6%,2.7333 ± 0.4819 mg,> 100 µM,–
"COC(=O)c1c2c(c3ccccc3c1OCC(=O)Nc1ccc(Br)cc1)OC(C)(C)C=C2 [Compound 4c, Methyl 6-(2-((4-bromophenyl)amino)-2-oxoethoxy)-2,2-dimethyl-2H-Benzo [h] chromene-5-carboxylate]",> 100 µM,125 to 127 °C,49.2%,3.3500 ± 1.0579 mg,> 100 µM,–
"CC(C)Cc1ccc(C(C)C(=O)O)cc1 (centres unmarked) [ibuprofen, reference compound]",–,–,49.8%,3.3167 ± 0.5550 mg,–,"Inhibition ([4]; 100 mg/kg, time 1 h): 22.98% ***; Inhibition ([4]; 100 mg/kg, time 2 h): 33.33% ***; Inhibition ([4]; 100 mg/kg, time 3 h): 44.95% ***; Inhibition ([4]; 100 mg/kg, time 4 h): 47.47%; Inhibition ([4]; 100 mg/kg, time 4 h, listed as Ibuprfen): 47.47% ***; Inhibition ([4]; 100 mg/kg, time 6 h (Table 5)): 44.44% ***; Inhibition ([4]; 100 mg/kg, time 9 h): 34.60% ***; Inhibition ([4]; 100 mg/kg, time 12 h): 19.95% **; Inhibition ([4]; 100 mg/kg, time 24 h): 14.65% *; Inhibition ([4]; dose series, 25 mg/kg, 6 h): 28.95% *; Inhibition ([4]; dose series, 50 mg/kg, 6 h): 32.68% **; Inhibition ([4]; dose series, 100 mg/kg, 6 h (Table 6)): 43.32% ***"
"COC(=O)c1c2c(c3ccccc3c1OCC(=O)Nc1ccccc1C)OC(C)(C)C=C2 [Compound 4g, Methyl 2,2-dimethyl-6-(2-oxo-2-(o-tolylamino)ethoxy)-2H-Benzo [h] chromene-5-carboxylate]",> 100 µM,122 to 124 °C,42.4%,3.8000 ± 0.5066 mg,> 100 µM,–
"COC(=O)c1c2c(c3ccccc3c1OCC(=O)NC1CC1)OC(C)(C)C=C2 [Compound 6f, Methyl 6-(2-(cyclopropylamino)-2-oxoethoxy)-2,2-dimethyl-2H-benzo [h] chromene-5-carboxylate]",> 100 µM,134 to 136 °C,57.3%,2.8167 ± 0.6962 mg,> 100 µM,–
COC(=O)c1c2c(c3ccccc3c1O)OC(C)(C)C=C2 [Mollugin],> 100 µM,–,54%,3.0333 ± 0.9655 mg,> 100 µM,–
